ChEMBL document CHEMBL1201862, “PubChem BioAssay data set” (2004)
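Method: 48-hour compound exposure of cells in 96-well plates, five concentrations, linear interpolation of endpoints. At the GI50, growth is halved.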 The source made the active and inactive calls. Cut-off read from the data, not from the text of the source: active = GI50 up to about 1.1 µM and inactive = higher.

Legend:
Assay in all cases: inhibition of tumour cell growth, NCI panel, 48 h
A549 = system: A549
ACHN = system: ACHN
BT-549 = system: BT-549
CAKI-1 = system: CAKI-1
DU-145 = system: DU-145
EKVX = system: EKVX
IGROV-1 = system: IGROV-1
LOX IMVI = system: LOX IMVI
MDA-MB-231 = system: MDA-MB-231
NCI-H460 = system: NCI-H460
NCI-H522 = system: NCI-H522
NCI/ADR-RES = system: NCI/ADR-RES
OVCAR-4 = system: OVCAR-4
SF-268 = system: SF-268
SR = system: SR
SW-620 = system: SW-620
T47D = system: T47D
U-251 = system: U-251
RPMI-8226 = system: RPMI-8226
HOP-62 = system: HOP-62

Measured: GI50

CC1(C)CCC[C@](C)([C@H]2CC[C@]3(C)[C@@H]2[C@H](O)C[C@@H]2[C@@]4(C)CC[C@H](O)C(C)(C)[C@@H]4[C@H](O)C[C@]23C)O1
inactive: A549 9.68 µM | ACHN 12.1 µM | BT-549 13.8 µM | CAKI-1 5.6 µM | DU-145 15.8 µM | EKVX 13.6 µM | IGROV-1 17.5 µM | LOX IMVI 17.5 µM | MDA-MB-231 17.3 µM | NCI-H460 10.1 µM | NCI-H522 12.1 µM | NCI/ADR-RES 15.2 µM | OVCAR-4 10.6 µM | SF-268 13.8 µM | SR 5.31 µM | SW-620 13.2 µM | T47D 10.6 µM | U-251 12.3 µM

O=C(NC(Cc1c[nH]c2ccccc12)C(=O)O)/C(=C/c1ccccc1O)NC(=O)c1ccccc1 (stereo not drawn)
inactive: A549 60.5 µM | ACHN 19.2 µM | BT-549 18.4 µM | CAKI-1 18.8 µM | DU-145 43.4 µM | EKVX 29.2 µM | IGROV-1 19.2 µM | LOX IMVI 33 µM | MDA-MB-231 21 µM | NCI-H460 33.2 µM | NCI-H522 20.4 µM | NCI/ADR-RES 13.9 µM | OVCAR-4 57.5 µM | RPMI-8226 > 100 µM | SF-268 17.6 µM | SR > 100 µM | SW-620 > 100 µM | T47D 12.1 µM | U-251 39.1 µM

COC(=O)c1ccc(CCC2=CC(=O)C=CC2=O)cc1
inactive: A549 23.5 µM | ACHN 7.71 µM | BT-549 12 µM | CAKI-1 4.11 µM | DU-145 18.2 µM | EKVX 16 µM | HOP-62 19.1 µM | IGROV-1 14.6 µM | LOX IMVI 6.4 µM | MDA-MB-231 19.4 µM | NCI-H460 19 µM | NCI-H522 1.62 µM | NCI/ADR-RES 20.7 µM | OVCAR-4 17.7 µM | RPMI-8226 1.8 µM | SF-268 15 µM | SR 2.49 µM | SW-620 4.52 µM | T47D 2.94 µM | U-251 11.2 µM

CCOC(=O)N1N=C(/C(C)=N/OC)C(C)[S+]1[O-] (stereo not drawn)
inactive: A549 > 100 µM | ACHN > 100 µM | BT-549 > 100 µM | CAKI-1 > 100 µM | DU-145 > 100 µM | EKVX > 100 µM | HOP-62 > 100 µM | IGROV-1 > 100 µM | MDA-MB-231 > 100 µM | NCI-H460 57.7 µM | NCI-H522 > 100 µM | NCI/ADR-RES > 100 µM | OVCAR-4 > 100 µM | RPMI-8226 > 100 µM | SF-268 > 100 µM | SR > 100 µM | SW-620 > 100 µM | T47D > 100 µM | U-251 > 100 µM

OCC1C(O)C(O)[C@@H]2SCCN12 (stereo partly drawn)
inactive: A549 > 100 µM | ACHN > 100 µM | BT-549 > 100 µM | CAKI-1 > 100 µM | DU-145 > 100 µM | EKVX > 100 µM | HOP-62 > 100 µM | IGROV-1 > 100 µM | LOX IMVI > 100 µM | MDA-MB-231 > 100 µM | NCI-H460 > 100 µM | NCI-H522 > 100 µM | NCI/ADR-RES > 100 µM | OVCAR-4 > 100 µM | RPMI-8226 > 100 µM | SF-268 > 100 µM | SR > 100 µM | SW-620 > 100 µM | T47D > 100 µM | U-251 > 100 µM

O=[N+]([O-])c1ccc(NN=C2CN3CCN(C2)c2ccccc23)c([N+](=O)[O-])c1
inactive: A549 > 100 µM | ACHN > 100 µM | BT-549 > 100 µM | CAKI-1 > 100 µM | DU-145 > 100 µM | EKVX 40.6 µM | HOP-62 > 100 µM | IGROV-1 97.3 µM | LOX IMVI > 100 µM | MDA-MB-231 > 100 µM | NCI-H460 > 100 µM | NCI-H522 > 100 µM | NCI/ADR-RES > 100 µM | OVCAR-4 > 100 µM | SF-268 > 100 µM | SR > 100 µM | SW-620 > 100 µM | T47D > 100 µM | U-251 > 100 µM

COc1ccc(NC(C)=O)cc1N1C(=O)/C(=C\c2cc(OC)c(OC)c(OC)c2)SC1c1ccccc1 (stereo not drawn)
inactive: A549 57.8 µM | ACHN 44.4 µM | BT-549 97.5 µM | CAKI-1 19 µM | DU-145 91.4 µM | EKVX 24.9 µM | HOP-62 63.7 µM | IGROV-1 23.8 µM | LOX IMVI 39.3 µM | MDA-MB-231 19.4 µM | NCI-H460 43.2 µM | NCI-H522 28.6 µM | NCI/ADR-RES 45.6 µM | OVCAR-4 39 µM | RPMI-8226 17.4 µM | SR 27.8 µM | SW-620 52.7 µM | T47D 33.5 µM | U-251 34.7 µM

Cc1nc2ccc(S(=O)(=O)O)cc2c(=O)n1-c1ccc(C(=O)NN2C(=O)C(Cl)C2c2cccs2)cc1 (stereo not drawn)
inactive: A549 > 100 µM | ACHN > 100 µM | BT-549 > 100 µM | CAKI-1 > 100 µM | DU-145 > 100 µM | EKVX 18.5 µM | HOP-62 23.1 µM | LOX IMVI > 100 µM | MDA-MB-231 22.9 µM | NCI-H460 > 100 µM | NCI-H522 > 100 µM | NCI/ADR-RES > 100 µM | OVCAR-4 24.5 µM | RPMI-8226 > 100 µM | SF-268 20.7 µM | SR > 100 µM | SW-620 > 100 µM | T47D 31.3 µM | U-251 > 100 µM

COC(=O)[C@H]1CO[C@@H](C(C)(C)C)N1C(=O)N1C=CC(=O)C[C@@H]1C
inactive: A549 > 100 µM | ACHN > 100 µM | BT-549 > 100 µM | CAKI-1 > 100 µM | DU-145 > 100 µM | EKVX > 100 µM | HOP-62 > 100 µM | IGROV-1 > 100 µM | LOX IMVI > 100 µM | MDA-MB-231 > 100 µM | NCI-H522 > 100 µM | NCI/ADR-RES > 100 µM | RPMI-8226 > 100 µM | SF-268 > 100 µM | SR > 100 µM | SW-620 > 100 µM | T47D > 100 µM | U-251 > 100 µM

COC1CC(N)C(O)C(C)O1 (stereo not drawn)
inactive: ACHN > 100 µM | BT-549 > 100 µM | CAKI-1 > 100 µM | DU-145 > 100 µM | EKVX > 100 µM | HOP-62 > 100 µM | IGROV-1 > 100 µM | LOX IMVI > 100 µM | MDA-MB-231 > 100 µM | NCI-H460 > 100 µM | NCI-H522 > 100 µM | NCI/ADR-RES > 100 µM | OVCAR-4 > 100 µM | RPMI-8226 > 100 µM | SF-268 > 100 µM | SR > 100 µM | SW-620 > 100 µM | T47D > 100 µM | U-251 > 100 µM

OCC1CCCC1O (stereo not drawn)
inactive: A549 > 100 µM | ACHN > 100 µM | BT-549 > 100 µM | CAKI-1 > 100 µM | DU-145 > 100 µM | IGROV-1 > 100 µM | MDA-MB-231 > 100 µM | NCI-H460 > 100 µM | NCI-H522 > 100 µM | NCI/ADR-RES > 100 µM | OVCAR-4 > 100 µM | RPMI-8226 > 100 µM | SF-268 > 100 µM | SR > 100 µM | SW-620 > 100 µM | T47D > 100 µM | U-251 > 100 µM

CC1(c2nc3cc(Cl)c(Cl)cc3[nH]2)CCC(C(=O)O)C(C)(C)O1 (stereo not drawn)
inactive: A549 > 100 µM | ACHN > 100 µM | BT-549 > 100 µM | CAKI-1 > 100 µM | DU-145 > 100 µM | EKVX > 100 µM | HOP-62 > 100 µM | IGROV-1 > 100 µM | LOX IMVI > 100 µM | MDA-MB-231 > 100 µM | NCI-H522 > 100 µM | NCI/ADR-RES > 100 µM | OVCAR-4 78.9 µM | RPMI-8226 > 100 µM | SF-268 > 100 µM | SR > 100 µM | SW-620 > 100 µM | T47D > 100 µM | U-251 > 100 µM

O=C1/C(=C/c2cccc3ccccc23)CCc2ccc([N+](=O)[O-])cc21
inactive: A549 22.8 µM | ACHN 26.8 µM | BT-549 16.1 µM | CAKI-1 24.8 µM | DU-145 51.6 µM | EKVX 47 µM | HOP-62 28.2 µM | IGROV-1 31.4 µM | LOX IMVI 26.9 µM | MDA-MB-231 28.5 µM | NCI-H460 29 µM | NCI/ADR-RES 16.3 µM | RPMI-8226 11.8 µM | SF-268 33.7 µM | SR > 10 µM | SW-620 9.66 µM | T47D 21 µM | U-251 14.1 µM

c1ccc2c(c1)nc1n2CCNC1
inactive: A549 > 100 µM | ACHN > 100 µM | BT-549 > 100 µM | CAKI-1 > 100 µM | DU-145 > 100 µM | EKVX > 100 µM | HOP-62 > 100 µM | IGROV-1 > 100 µM | LOX IMVI > 100 µM | MDA-MB-231 > 100 µM | NCI-H460 > 100 µM | NCI/ADR-RES > 100 µM | OVCAR-4 > 100 µM | RPMI-8226 > 100 µM | SF-268 > 100 µM | SR > 100 µM | SW-620 > 100 µM | T47D > 100 µM | U-251 > 100 µM
